Data taken from patent publication US12274264B2, “Piperonylic acid derivative and application thereof” (SHENYANG SINOCHEM AGROCHEMICALS R&D CO., LTD., priority 2019, dated 2025).
Where two headings read alike, the source gives them in different places.

What was measured:
Type in all cases: in vivo
diamondback moth = assay: Determination of activity against diamondback moth (cabbage leaf disc dip, mortality after 72 hours); details: Plutella xylostella, foliar, 10 mg/L, second instar, read-out: mortality rates against diamondback moth
Protocol: (§1) According to the solubility of test compounds, the compounds are dissolved with acetone or dimethyl sulfoxide, and then diluted with 0.1% Tween 80 solution to form a required concentration of 50 ml test liquid. The content of the acetone or the dimethyl sulfoxide in the total solution is not more than 10%.
The leaves of cabbage grown in greenhouse were selected, removed the surface waxy layers, punched into circular leaf discs with a diameter of 2 cm by using a puncher, and dipped into a solution of the required concentration of test compounds for 10 seconds. After dried in shade, the circular leaf discs were placed in a 9 cm diameter petri dish provided with filter paper. Ten regular healthy test insects (second instar) were put into the leaf discs. Four replicates were set for each treatment. The pure water treatment was set as control check. The treated discs were placed in a chamber of 24° C., 60%-70% relative humidity and day light. After 72 hours, the number of surviving insects was investigated, and the mortality rate was calculated.

[1] = test system: Tribolium confusum adults; assay: Determination of Tribolium confusum adults (treated feeding bran, 72 h); details: for mortality at 600 µg/mL: 600 mg/L, read-out: mortality rates against Tribolium confusum adults; for mortality at 5 µg/mL / mortality at 20 µg/mL: read-out: Mortality (%) against Tribolium Confusum Adults
Protocol: as §1
The test liquid was prepared in the order from low dose to high dose according to the test design. Then, the liquid of different concentrations was added to feeding bran and uniformly stirred, and dried in the shade. Then, the resulting feeding bran was collected in a paper cup. Fifty Tribolium confusum adults with consistent size were put in the paper cup. Three replicates were set for each treatment. Control check was set. The treated test materials were put in an observation room under controlled conditions. After 72 h, the number of dead and surviving adults was investigated.

armyworm = assay: Determination of activity against armyworm (corn leaf dip, mortality after 72 hours); details: foliar, 10 mg/L, third instar, read-out: mortality rates against armyworm
Protocol: as §1
The middle leaves of fresh corns were cut into small sections of 3 cm, and dipped into a solution of the required concentration of test compounds for 10 seconds. After dried in shade, the middle leaves were placed in a 9 cm diameter petri dish provided with filter paper. Fourteen regular healthy test insects (third instar) were put into the leaves. Four replicates were set for each treatment. The pure water treatment was set as control check. The treated discs were placed in a chamber of 24° C., 60%-70% relative humidity and day light. After 72 hours, the number of surviving insects was investigated, and the mortality rate was calculated.

[2] = test system: western flower thrips nymphs; assay: Determination of activity against western flower thrips nymphs (sprayed kidney bean leaves, mortality after 72 hours); details: for mortality at 600 µg/mL / mortality at 10 µg/mL / mortality at 100 µg/mL: Frankliniella occidentalis; for mortality at 600 µg/mL: 600 mg/L, read-out: mortality rates against western flower thrips nymphs; for mortality at 10 µg/mL / mortality at 100 µg/mL: read-out: Mortality (%) against Western Flower Thrips Nymphs
Protocol: as §1
Fresh kidney bean leaves cultured in the glasshouse were selected and uniformly sprayed with 1 ml of the test liquid by using a handheld Airbrush. The leaves were dried naturally and placed in a test tube. Fifteen tidy and healthy western flower thrips nymphs were put into the leaves. Three replicates were set for each treatment. The water treatment was set as control check. After the treatment, the treated tube were placed in a chamber of 24° C., 60%-70% relative humidity and day light. After 72 hours, the number of surviving insects was investigated, and the mortality was calculated.

[3] = test system: Tetranychus cinnabarinus adults; assay: Determination of acaricidal activity (spray on bean plant leaves with adult spider mites, mortality after 72 hours); details: after 72 hours, read-out: Mortality (%) against Tetranychus Cinnabarinus Adult; for mortality at 10 µg/mL: 10 mg/L; for mortality at 100 µg/mL: 100 mg/L; for mortality at 600 µg/mL: 600 mg/L
Protocol: as §1
The adult spider mites were put into two true leaves of bean plants. After the number of mites was investigated, the solution of certain concentrations of test compounds was sprayed by using a handheld Airbrush. Three replicates were set for each treatment. Then the leaves were maintained in a standard observation room. After 72 hours, the number of surviving mites was investigated, and the mortality rate was calculated. Compounds I-41, KC3, KC4 and MC were selected for parallel determination of activity against Tetranychus cinnabarinus adults.

## O=C(Nc1cccc(C(=O)Nc2c(I)cc(C(F)(C(F)(F)F)C(F)(F)F)cc2OC(F)F)c1F)c1ccc2c(c1)OC(F)(F)O2 [Compound I-1]
Diamondback moth
  mortality at 10 µg/mL: > 90%
[1]; after 72 h
  mortality at 600 µg/mL: > 90%
armyworm
  mortality at 10 µg/mL: > 90%
[2]; after 72 hours
  mortality at 600 µg/mL: > 90%

## CN(C(=O)c1ccc2c(c1)OC(F)(F)O2)c1cccc(C(=O)Nc2c(I)cc(C(F)(C(F)(F)F)C(F)(F)F)cc2OC(F)F)c1F [Compound I-2]
Diamondback moth
  mortality at 10 µg/mL: > 90%
[1]; after 72 h
  mortality at 600 µg/mL: > 90%
armyworm
  mortality at 10 µg/mL: > 90%
[2]; after 72 hours
  mortality at 600 µg/mL: > 90%

## O=C(Nc1cccc(C(=O)Nc2c(Br)cc(C(F)(C(F)(F)F)C(F)(F)F)cc2OC(F)F)c1F)c1ccc2c(c1)OC(F)(F)O2 [Compound I-41]
Diamondback moth
  mortality at 10 µg/mL: > 90%
[1]; after 72 h
  mortality at 600 µg/mL: > 90%
armyworm
  mortality at 10 µg/mL: > 90%
[3]
  mortality at 10 µg/mL: 87%
  mortality at 100 µg/mL: 100%
  mortality at 600 µg/mL: 100%
[2]; 10 mg/L, after 72 hours
  mortality at 10 µg/mL: 90%
[2]; 100 mg/L, after 72 hours
  mortality at 100 µg/mL: 95%
[2]; after 72 hours
  mortality at 600 µg/mL: > 90%

## CN(C(=O)c1ccc2c(c1)OC(F)(F)O2)c1cccc(C(=O)Nc2c(Br)cc(C(F)(C(F)(F)F)C(F)(F)F)cc2OC(F)F)c1F [Compound I-42, N-(2-bromo-6-difluoromethoxy-4-heptafluoroisopropylphenyl)-2-fluoro-3-(N-methyl-2,2-difluoro-1,3-benzodioxole-5-carboxamido) benzamide]
Diamondback moth
  mortality at 10 µg/mL: > 90%
[1]; 5 mg/L, after 72 h
  mortality at 5 µg/mL: 81%
[1]; 20 mg/L, after 72 h
  mortality at 20 µg/mL: 100%
[1]; after 72 h
  mortality at 600 µg/mL: > 90%
armyworm
  mortality at 10 µg/mL: > 90%
[2]; 10 mg/L, after 72 hours
  mortality at 10 µg/mL: 91%
[2]; 100 mg/L, after 72 hours
  mortality at 100 µg/mL: 100%
[2]; after 72 hours
  mortality at 600 µg/mL: > 90%

## CCN(C(=O)c1ccc2c(c1)OC(F)(F)O2)c1cccc(C(=O)Nc2c(Br)cc(C(F)(C(F)(F)F)C(F)(F)F)cc2OC(F)F)c1F [Compound I-43, N-(2-bromo-6-difluoromethoxy-4-heptafluoroisopropylphenyl)-2-fluoro-3-(N-ethyl-2,2-difluoro-1,3-benzodioxole-5-carboxamido) benzamide]
Diamondback moth
  mortality at 10 µg/mL: > 90%
[1]; after 72 h
  mortality at 600 µg/mL: > 90%
armyworm
  mortality at 10 µg/mL: > 90%
[2]; after 72 hours
  mortality at 600 µg/mL: > 90%

## CCCCN(C(=O)c1ccc2c(c1)OC(F)(F)O2)c1cccc(C(=O)Nc2c(Br)cc(C(F)(C(F)(F)F)C(F)(F)F)cc2OC(F)F)c1F [Compound I-46, N-(2-bromo-6-difluoromethoxy-4-heptafluoroisopropylphenyl)-2-fluoro-3-(N-n-butyl-2,2-difluoro-1,3-benzodioxole-5-carboxamido) benzamide]
Diamondback moth
  mortality at 10 µg/mL: > 90%
[1]; after 72 h
  mortality at 600 µg/mL: > 90%
armyworm
  mortality at 10 µg/mL: > 90%
[2]; after 72 hours
  mortality at 600 µg/mL: > 90%

## O=C(Nc1c(Br)cc(C(F)(C(F)(F)F)C(F)(F)F)cc1OC(F)F)c1cccc(N(CC2CC2)C(=O)c2ccc3c(c2)OC(F)(F)O3)c1F [Compound I-50, N-(2-bromo-6-difluoromethoxy-4-heptafluoroisopropylphenyl)-2-fluoro-3-(N-cyclopropylmethyl-2,2-difluoro-1,3-benzodioxole-5-carboxamido) benzamide]
Diamondback moth
  mortality at 10 µg/mL: > 90%
[1]; after 72 h
  mortality at 600 µg/mL: > 90%
armyworm
  mortality at 10 µg/mL: > 90%
[2]; after 72 hours
  mortality at 600 µg/mL: > 90%

## CC(C)=CCCC(C)CCN(C(=O)c1ccc2c(c1)OC(F)(F)O2)c1cccc(C(=O)Nc2c(Br)cc(C(F)(C(F)(F)F)C(F)(F)F)cc2OC(F)F)c1F (stereo not shown) [Compound I-57]
Diamondback moth
  mortality at 10 µg/mL: > 90%
[1]; after 72 h
  mortality at 600 µg/mL: > 90%
armyworm
  mortality at 10 µg/mL: > 90%
[2]; after 72 hours
  mortality at 600 µg/mL: > 90%

## CSCCCN(C(=O)c1ccc2c(c1)OC(F)(F)O2)c1cccc(C(=O)Nc2c(Br)cc(C(F)(C(F)(F)F)C(F)(F)F)cc2OC(F)F)c1F [Compound I-60, N-(2-bromo-6-difluoromethoxy-4-heptafluoroisopropylphenyl)-2-fluoro-3-(N-(3-methylthiopropyl)-2,2-difluoro-1,3-benzodioxole-5-carboxamido) benzamide]
Diamondback moth
  mortality at 10 µg/mL: > 90%
[1]; after 72 h
  mortality at 600 µg/mL: > 90%
armyworm
  mortality at 10 µg/mL: > 90%
[2]; after 72 hours
  mortality at 600 µg/mL: > 90%

## CN(C(=O)c1ccc2c(c1)OC(F)(F)O2)c1cccc(C(=O)Nc2c(Br)cc(C(F)(C(F)(F)F)C(F)(F)F)cc2OC(F)(F)F)c1F [Compound I-62, N-(2-bromo-4-heptafluoroisopropyl-6-trifluoromethoxyphenyl)-2-fluoro-3-(N-methyl-2,2-difluoro-1,3-benzodioxole-5-carboxamido) benzamide]
Diamondback moth
  mortality at 10 µg/mL: > 90%
[1]; after 72 h
  mortality at 600 µg/mL: > 90%
armyworm
  mortality at 10 µg/mL: > 90%
[2]; after 72 hours
  mortality at 600 µg/mL: > 90%

## O=C(Nc1cccc(C(=O)Nc2c(Cl)cc(C(F)(C(F)(F)F)C(F)(F)F)cc2OC(F)F)c1F)c1ccc2c(c1)OC(F)(F)O2 [Compound I-81]
Diamondback moth
  mortality at 10 µg/mL: > 90%
[1]; after 72 h
  mortality at 600 µg/mL: > 90%
armyworm
  mortality at 10 µg/mL: > 90%
[2]; after 72 hours
  mortality at 600 µg/mL: > 90%

## CN(C(=O)c1ccc2c(c1)OC(F)(F)O2)c1cccc(C(=O)Nc2c(Cl)cc(C(F)(C(F)(F)F)C(F)(F)F)cc2OC(F)F)c1F [Compound I-82]
Diamondback moth
  mortality at 10 µg/mL: > 90%
[1]; after 72 h
  mortality at 600 µg/mL: > 90%
armyworm
  mortality at 10 µg/mL: > 90%
[2]; after 72 hours
  mortality at 600 µg/mL: > 90%

## O=C(Nc1cccc(C(=O)Nc2c(OC(F)F)cc(C(F)(C(F)(F)F)C(F)(F)F)cc2C(F)(F)F)c1F)c1ccc2c(c1)OC(F)(F)O2 [Compound I-121]
Diamondback moth
  mortality at 10 µg/mL: > 90%
[1]; after 72 h
  mortality at 600 µg/mL: > 90%
armyworm
  mortality at 10 µg/mL: > 90%
[2]; after 72 hours
  mortality at 600 µg/mL: > 90%

## CN(C(=O)c1ccc2c(c1)OC(F)(F)O2)c1cccc(C(=O)Nc2c(OC(F)F)cc(C(F)(C(F)(F)F)C(F)(F)F)cc2C(F)(F)F)c1F [Compound I-122]
Diamondback moth
  mortality at 10 µg/mL: > 90%
[1]; after 72 h
  mortality at 600 µg/mL: > 90%
armyworm
  mortality at 10 µg/mL: > 90%
[2]; after 72 hours
  mortality at 600 µg/mL: > 90%

## CNC(=O)c1cc(C#N)cc(C)c1NC(=O)c1cc(Br)nn1-c1ncccc1Cl [Cyantraniliprole, reference compound]
[1]; 72 h
  mortality at 5 µg/mL: 0%
  mortality at 20 µg/mL: 5%
[2]; 72 h
  mortality at 10 µg/mL: 25%
  mortality at 100 µg/mL: 85%

## O=C(Nc1cccc(C(=O)Nc2c(Br)cc(C(F)(C(F)(F)F)C(F)(F)F)cc2Br)c1F)c1ccc2c(c1)OC(F)(F)O2 [KC1, reference compound]
[2]; 10 mg/L, after 72 hours
  mortality at 10 µg/mL: 15%
[2]; 100 mg/L, after 72 hours
  mortality at 100 µg/mL: 85%

## CN(C(=O)c1ccc2c(c1)OC(F)(F)O2)c1cccc(C(=O)Nc2c(Br)cc(C(F)(C(F)(F)F)C(F)(F)F)cc2Br)c1F [KC2, reference compound]
[1]; 5 mg/L, after 72 h
  mortality at 5 µg/mL: 70%
[1]; 20 mg/L, after 72 h
  mortality at 20 µg/mL: 76%
[2]; 10 mg/L, after 72 hours
  mortality at 10 µg/mL: 59%
[2]; 100 mg/L, after 72 hours
  mortality at 100 µg/mL: 90%

## CN(C(=O)c1ccccc1)c1cccc(C(=O)Nc2c(Br)cc(C(F)(C(F)(F)F)C(F)(F)F)cc2OC(F)F)c1F [MC]
[3]
  mortality at 10 µg/mL: 0%
  mortality at 100 µg/mL: 0%
  mortality at 600 µg/mL: 0%
[2]; 10 mg/L, after 72 hours
  mortality at 10 µg/mL: 72%
[2]; 100 mg/L, after 72 hours
  mortality at 100 µg/mL: 76%

## Spinetoram [reference compound]
[2]; 10 mg/L, after 72 hours
  Mortality (%) against Western Flower Thrips Nymphs: 90%
[2]; 100 mg/L, after 72 hours
  Mortality (%) against Western Flower Thrips Nymphs: 100%
